Assays:
stage III CRC patients = experiment: Survival of stage III CRC patients treated by surgery alone or by surgery and 5-FU/leucovorin (matched cohorts), by CIMP status; type: in vivo, human
Excerpt: A total of 891 stage III CRC cases were diagnosed at the Sir Charles Gairdner Hospital between 1985 and 1999 (14). This spans the time period during which 5-FU-based adjuvant chemotherapy was being introduced in Western Australia for the management of stage III CRC. Adjuvant chemotherapy was given to 270 (30%) patients according to the standard Mayo regimen (5-FU/leucovorin). This comprised at least two cycles of chemotherapy, and for the majority of patients the full six cycles were completed. Patients were separated into categories based on 5-year age intervals, gender, and site of tumor origin. […] Within these groups, adjuvant-treated and nontreated patients were pair-matched at random. A total cohort of 125 matched pairs was selected for DNA methylation analysis. […] All cases were diagnosed at a single pathology laboratory (Hospital and University Pathology Service/Pathcenter) associated with the Sir Charles Gairdner Hospital. This laboratory maintained relatively constant reporting practices during the 1985-1999 study period. Five cases were classified as T4 lesions, and all others were classified as T3. The study included 48 rectal, 24 sigmoid, 24 descending colon, 17 transverse colon, 47 ascending colon, and 46 cecal tumors. Four patients with rectal cancer received post-operative radiotherapy. Disease-specific survival information was obtained on all 206 patients by examination of hospital and West Australian Health Department records. The median follow-up time was 39 months (range, 1-172 months), with 119 patients (58%) dying as a result of recurrent disease by the end of the study. Survival data for 19 (9%) patients who died from other causes were censored at the time of death. It has been estimated that net migration out of the state of Western Australia is 0.4% per year, equating to approximately 1 case/year of the 206 cases investi-gated in this series. However, this rate is expected to be considerably lower for older individuals and particularly for those diagnosed with cancer. The Sir Charles Gairdner Hospital Human Research Ethics Committee gave approval for this study.
Methylation-specific PCR was used to determine the methylation status of CpG islands located within the p16 promoter (4, 5, 10, 17), the MINT-2 clone (3, 4), and the MDR1 promoter (4, 9). DNA amplification of all three CpG loci was successful for 103 matched pairs, equating to an overall success rate of approximately 90%. CIMP+ was arbitrarily defined as the presence of two or more of these sites showing methylation. Of the 206 tumors successfully analyzed in this study for CIMP+ status, the majority (83%) were sourced from formalin-fixed and paraffin-embedded archival tissue blocks. The remaining cases were in the form of unfixed tissue samples taken shortly after surgical resection and stored frozen at −80° C.
Multivariate Cox proportional hazard test with matched-pair stratification and Kaplan-Meier analyses were used to evaluate differences in survival between patient groups. Regression sensitivity was determined by analyzing the effect of unmeasured binary confounders as described by Lin et al. (20) Statistical analyses were performed using the Stata 7.0 (College Station, Tex.) software package. All Ps are two-sided.

[1] = test system: stage II and III colorectal cancers; experiment: Survival of stage II and III colorectal cancer patients treated by surgery alone or surgery plus standard 5FU chemotherapy, by hMLH1 methylation; type: in vivo, human
Excerpt: The predictive value of hMLH1 methylation for survival benefit with 5FU chemotherapy was examined in a series of stage II and III colorectal cancers that had been treated by surgery alone (no chemotherapy) or by surgery plus standard 5FU chemotherapy.
The following primers were used to detect methylated hMLH1 following bisulfite conversion (utilising the MSP technique): […]

O=c1[nH]cc(F)c(=O)[nH]1 [5-FU, 5-fluorouracil]
RR (relative risk), predictive value of CIMP+ for survival benefit (stage III CRC patients; CIMP+, multivariate analysis for matched pairs, independent of MSI+ and p53 status, 95% CI 0.06-0.84, P=0.027): 0.22
long-term survival benefit from 5-FU treatment (stage III CRC patients; CIMP- patients): no long-term survival benefit
RR (relative risk), survival benefit from 5-FU (stage III CRC patients; CIMP- patients, 95% CI 0.62-1.49, P=0.86): 0.96
RR (relative risk), survival benefit associated with the use of 5-FU (stage III CRC patients; all stage III CRC patients, surgery + 5-FU vs surgery alone, 95% CI 0.43-0.90, P=0.012): 0.62
survival of CIMP+ patients compared to CIMP- (stage III CRC patients; cohort treated with surgery plus 5-FU): trend for better survival
patients who died from recurrent CRC despite the use of 5-FU (stage III CRC patients; patients with CIMP+ tumors): approximately 40%
survival of patient group ([1]; hMLH1 methylated, chemotherapy (10/10), P = 0.097 vs no chemotherapy): 10/10 (100%) P = 0.097
survival of patient group ([1]; hMLH1 non-methylated, chemotherapy (15/22), P = NS vs no chemotherapy): 15/22 (68%) P = NS
impact of chemotherapy on overall survival ([1]; patients with methylated hMLH1 gene, chemotherapy vs no chemotherapy (FIG. 3C)): positive impact
